Test results as given in ChEMBL document CHEMBL3853314, “G-Protein-Coupled Receptor Kinase 2 (GRK2) Inhibitors: Current Trends and Future Perspectives” (J Med Chem, 2016).
Counter-ions that a name gives are not always drawn. Peptide text beside a SMILES is read from it.

Assays:
[1] = Inhibition of human PKA catalytic subunit
[2] = target: Beta-adrenergic receptor kinase 1 (Homo sapiens, UniProt P25098, S670A); experiment: Inhibition of human GRK2 S670A mutant assessed as decrease in phosphorylation of light-activated bovine rod outer segments after 5 mins by SDS-PAGE analysis
Chain of Beta-adrenergic receptor kinase 1 (Homo sapiens, UniProt P25098, S670A) (P25098 whole entry S670A): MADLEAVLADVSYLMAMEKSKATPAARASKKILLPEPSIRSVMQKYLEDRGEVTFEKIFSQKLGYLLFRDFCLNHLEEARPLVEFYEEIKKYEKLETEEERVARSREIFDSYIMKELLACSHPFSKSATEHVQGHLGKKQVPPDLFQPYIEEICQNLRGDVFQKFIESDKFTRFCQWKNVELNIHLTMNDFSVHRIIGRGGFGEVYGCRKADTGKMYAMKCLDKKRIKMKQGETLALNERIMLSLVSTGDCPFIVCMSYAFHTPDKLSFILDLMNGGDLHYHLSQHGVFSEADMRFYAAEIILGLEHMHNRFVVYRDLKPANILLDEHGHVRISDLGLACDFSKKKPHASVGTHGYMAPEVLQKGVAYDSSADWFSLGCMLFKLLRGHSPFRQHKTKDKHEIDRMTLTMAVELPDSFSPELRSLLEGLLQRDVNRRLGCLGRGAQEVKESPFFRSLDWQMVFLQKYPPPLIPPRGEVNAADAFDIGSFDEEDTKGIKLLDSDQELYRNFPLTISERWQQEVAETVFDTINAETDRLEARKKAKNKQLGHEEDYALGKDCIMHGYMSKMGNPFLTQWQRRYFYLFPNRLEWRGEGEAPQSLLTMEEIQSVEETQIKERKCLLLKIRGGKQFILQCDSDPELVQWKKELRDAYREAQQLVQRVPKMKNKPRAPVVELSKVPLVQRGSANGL

[3] = target: G protein-coupled receptor kinase 5 (Bos taurus, UniProt P43249); experiment: Inhibition of bovine GRK5 assessed as decrease in phosphorylation of tubulin after 5 mins by SDS-PAGE analysis
Chain of G protein-coupled receptor kinase 5 (Bos taurus, UniProt P43249) (P43249 whole entry): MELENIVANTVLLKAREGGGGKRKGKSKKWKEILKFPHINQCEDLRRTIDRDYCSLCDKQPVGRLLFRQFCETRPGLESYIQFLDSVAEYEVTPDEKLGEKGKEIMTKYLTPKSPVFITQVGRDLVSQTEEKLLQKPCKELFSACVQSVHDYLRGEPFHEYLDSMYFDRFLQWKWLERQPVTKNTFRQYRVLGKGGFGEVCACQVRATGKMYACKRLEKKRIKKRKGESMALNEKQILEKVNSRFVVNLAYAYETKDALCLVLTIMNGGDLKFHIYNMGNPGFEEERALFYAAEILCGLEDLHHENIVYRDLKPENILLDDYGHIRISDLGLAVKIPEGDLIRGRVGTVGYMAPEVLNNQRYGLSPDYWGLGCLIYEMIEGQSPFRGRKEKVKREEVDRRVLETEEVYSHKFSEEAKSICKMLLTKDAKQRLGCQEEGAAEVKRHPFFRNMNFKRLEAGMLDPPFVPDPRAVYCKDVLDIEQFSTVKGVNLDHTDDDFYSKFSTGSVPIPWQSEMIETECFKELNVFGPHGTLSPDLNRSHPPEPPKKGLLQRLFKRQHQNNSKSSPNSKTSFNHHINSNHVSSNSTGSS

[4] = Inhibition of PKA (unknown origin) using LRRASLG as substrate incubated for 30 mins by ADP-Glo assay; design: species or system Homo sapiens
Rhodopsin kinase GRK1 = target: T1, Rhodopsin kinase GRK1 (Bos taurus, UniProt P28327); experiment: Inhibition of bovine GRK1 (1 to 535 residues) assessed as decrease in phosphorylation of tubulin after 5 mins by SDS-PAGE analysis
T1 sequence (P28327 whole entry): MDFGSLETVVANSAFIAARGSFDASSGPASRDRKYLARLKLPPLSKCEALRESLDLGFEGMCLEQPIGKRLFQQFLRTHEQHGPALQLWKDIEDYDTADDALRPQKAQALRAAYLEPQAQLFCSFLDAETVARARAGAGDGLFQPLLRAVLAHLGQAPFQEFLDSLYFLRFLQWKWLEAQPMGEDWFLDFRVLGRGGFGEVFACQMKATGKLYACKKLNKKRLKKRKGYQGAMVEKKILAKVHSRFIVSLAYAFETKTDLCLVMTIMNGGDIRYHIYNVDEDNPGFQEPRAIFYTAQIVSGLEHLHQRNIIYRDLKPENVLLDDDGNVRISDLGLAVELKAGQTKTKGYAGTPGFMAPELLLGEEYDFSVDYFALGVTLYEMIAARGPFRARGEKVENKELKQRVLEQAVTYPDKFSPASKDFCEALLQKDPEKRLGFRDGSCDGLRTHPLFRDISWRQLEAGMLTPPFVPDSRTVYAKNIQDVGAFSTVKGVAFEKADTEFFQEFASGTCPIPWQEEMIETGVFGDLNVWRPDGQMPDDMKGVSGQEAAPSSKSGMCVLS

[5] = target: T2, Beta-adrenergic receptor kinase 1 (Bos taurus, UniProt P21146); experiment: Inhibition of bovine cerebral cortex GRK2 assessed as decrease in rhodopsin phosphorylation by SDS-PAGE analysis
T2 sequence (P21146 whole entry): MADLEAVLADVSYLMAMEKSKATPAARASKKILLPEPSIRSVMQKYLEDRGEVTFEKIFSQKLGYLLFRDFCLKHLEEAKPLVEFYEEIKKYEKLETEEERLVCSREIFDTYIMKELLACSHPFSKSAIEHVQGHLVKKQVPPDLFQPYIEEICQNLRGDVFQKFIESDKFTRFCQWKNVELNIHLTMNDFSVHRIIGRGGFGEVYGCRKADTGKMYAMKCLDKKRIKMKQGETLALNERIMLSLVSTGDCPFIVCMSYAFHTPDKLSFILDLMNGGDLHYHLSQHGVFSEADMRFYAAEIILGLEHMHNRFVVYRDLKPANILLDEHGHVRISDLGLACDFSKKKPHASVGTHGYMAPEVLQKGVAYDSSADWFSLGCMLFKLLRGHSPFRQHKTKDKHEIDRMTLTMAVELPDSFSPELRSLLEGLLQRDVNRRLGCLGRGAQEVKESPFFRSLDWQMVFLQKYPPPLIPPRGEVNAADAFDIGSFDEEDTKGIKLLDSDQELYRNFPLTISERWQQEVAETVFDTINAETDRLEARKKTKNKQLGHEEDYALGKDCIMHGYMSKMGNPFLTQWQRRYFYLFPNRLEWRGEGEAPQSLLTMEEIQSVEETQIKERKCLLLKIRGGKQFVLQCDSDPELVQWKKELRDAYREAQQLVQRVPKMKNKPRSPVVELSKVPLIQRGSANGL

[6] = target: G protein-coupled receptor kinase 5 (Homo sapiens, UniProt P34947); experiment: Inhibition of recombinant human GRK5 expressed in Sf9 insect cells assessed as decrease in phosphorylation of urea-washed bovine rod outer segments in presence of Gbetagamma subunits and [gamma-32P]-ATP after 5 to 60 mins by SDS-PAGE analysis
Chain of G protein-coupled receptor kinase 5 (Homo sapiens, UniProt P34947) (P34947 whole entry): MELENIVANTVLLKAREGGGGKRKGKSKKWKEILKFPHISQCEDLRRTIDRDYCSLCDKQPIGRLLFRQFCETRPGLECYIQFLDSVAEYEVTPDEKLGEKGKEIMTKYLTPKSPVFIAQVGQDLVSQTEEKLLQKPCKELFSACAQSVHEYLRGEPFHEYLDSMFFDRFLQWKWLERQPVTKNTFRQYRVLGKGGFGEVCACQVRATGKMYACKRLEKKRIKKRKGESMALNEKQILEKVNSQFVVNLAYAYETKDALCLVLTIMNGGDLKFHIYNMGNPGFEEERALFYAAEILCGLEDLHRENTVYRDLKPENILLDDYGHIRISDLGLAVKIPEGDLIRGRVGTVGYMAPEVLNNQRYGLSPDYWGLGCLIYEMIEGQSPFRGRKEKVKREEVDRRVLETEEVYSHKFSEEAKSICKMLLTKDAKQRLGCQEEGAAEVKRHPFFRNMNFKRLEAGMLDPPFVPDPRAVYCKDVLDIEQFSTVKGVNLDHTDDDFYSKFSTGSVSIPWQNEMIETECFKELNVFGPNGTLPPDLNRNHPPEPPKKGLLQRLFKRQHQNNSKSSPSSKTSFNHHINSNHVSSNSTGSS

[7] = target: Beta-adrenergic receptor kinase 1 (Bos taurus, UniProt P21146, S670A); experiment: Inhibition of bovine GRK2 expressed in Sf9 insect cells assessed as decrease in phosphorylation of urea-washed bovine rod outer segments in presence of Gbetagamma subunits and [gamma-32P]-ATP after 5 to 60 mins by SDS-PAGE analysis
Chain of Beta-adrenergic receptor kinase 1 (Bos taurus, UniProt P21146, S670A) (P21146 whole entry S670A): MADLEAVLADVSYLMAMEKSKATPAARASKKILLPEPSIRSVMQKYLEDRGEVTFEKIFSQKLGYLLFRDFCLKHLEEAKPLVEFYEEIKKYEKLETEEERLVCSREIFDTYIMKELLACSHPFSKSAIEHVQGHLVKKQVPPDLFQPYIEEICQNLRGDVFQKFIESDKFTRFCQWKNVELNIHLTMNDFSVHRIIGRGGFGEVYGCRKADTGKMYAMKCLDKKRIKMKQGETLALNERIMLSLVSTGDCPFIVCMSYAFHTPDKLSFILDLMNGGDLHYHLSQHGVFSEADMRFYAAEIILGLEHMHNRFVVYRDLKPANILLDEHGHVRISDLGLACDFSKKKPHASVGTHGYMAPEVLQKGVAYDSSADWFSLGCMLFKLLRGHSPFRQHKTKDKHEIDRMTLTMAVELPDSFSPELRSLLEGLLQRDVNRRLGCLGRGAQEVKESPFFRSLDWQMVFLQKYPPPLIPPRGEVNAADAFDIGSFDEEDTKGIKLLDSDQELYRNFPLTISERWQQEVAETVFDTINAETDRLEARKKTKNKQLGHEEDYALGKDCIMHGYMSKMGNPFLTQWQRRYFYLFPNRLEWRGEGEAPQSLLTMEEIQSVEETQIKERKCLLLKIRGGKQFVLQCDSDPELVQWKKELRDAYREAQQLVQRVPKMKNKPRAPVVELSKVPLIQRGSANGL

[8] = target: T3, G protein-coupled receptor kinase 3 (Bos taurus, UniProt P26818); experiment: Inhibition of recombinant bovine GRK3 expressed in Sf9 insect cells assessed as decrease in phosphorylation of urea-washed bovine rod outer segments in presence of Gbetagamma subunits and [gamma-32P]-ATP after 5 to 60 mins by SDS-PAGE analysis
T3 sequence (P26818 whole entry): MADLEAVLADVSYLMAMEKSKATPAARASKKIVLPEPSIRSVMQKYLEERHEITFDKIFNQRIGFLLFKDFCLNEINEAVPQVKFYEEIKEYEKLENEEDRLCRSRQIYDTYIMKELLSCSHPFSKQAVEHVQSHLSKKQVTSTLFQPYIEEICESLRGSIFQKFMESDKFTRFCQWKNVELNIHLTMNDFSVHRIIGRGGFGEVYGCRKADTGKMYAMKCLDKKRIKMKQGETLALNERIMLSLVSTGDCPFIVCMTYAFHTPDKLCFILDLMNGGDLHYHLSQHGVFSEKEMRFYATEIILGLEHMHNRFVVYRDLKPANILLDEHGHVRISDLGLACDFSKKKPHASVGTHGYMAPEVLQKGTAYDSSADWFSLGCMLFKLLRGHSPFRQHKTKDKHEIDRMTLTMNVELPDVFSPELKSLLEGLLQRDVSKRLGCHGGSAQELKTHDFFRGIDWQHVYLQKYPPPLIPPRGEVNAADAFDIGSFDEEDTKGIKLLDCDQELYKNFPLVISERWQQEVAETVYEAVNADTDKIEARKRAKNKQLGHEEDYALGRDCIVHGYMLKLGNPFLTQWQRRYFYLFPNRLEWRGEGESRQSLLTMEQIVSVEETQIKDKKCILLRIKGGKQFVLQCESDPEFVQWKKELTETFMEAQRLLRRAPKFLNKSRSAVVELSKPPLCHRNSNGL

[9] = target: Protein kinase C alpha type (Homo sapiens, UniProt P17252); experiment: Inhibition of recombinant full-length human N-terminal GST tagged PKCalpha expressed in Baculovirus infected Sf9 insect cells using KRREILSRRPSYR as substrate incubated for 30 mins by ADP-Glo assay

Structure (SMILES)	IC50 [4] [µM]	IC50 [6] [µM]	IC50 [7] [µM]	IC50 [8] [µM]	other results
Cn1c(CNc2cccc(C(=O)NCc3ccccc3C(F)(F)F)c2)nnc1-c1ccncc1	–	–	–	–	IC50 [1]: > 2000 nM
O=C1NCc2ccc(OC[C@@H]3CNCC[C@H]3c3ccc(F)cc3)cc21	–	–	–	–	IC50 [2]: 6.3 µM
CC1=C(C(=O)Nc2ccc3[nH]ncc3c2)C(c2ccc(F)cc2)N=C(c2ccc(C(F)(F)F)cc2)N1 (configuration not stated)	200	–	–	–	IC50 [3]: 631 µM; IC50 (Rhodopsin kinase GRK1): > 1 mM
O=S(=O)(O)O[C@H]1[C@H](OS(=O)(=O)O)[C@@H](OS(=O)(=O)O)[C@H](OS(=O)(=O)O)[C@@H](OS(=O)(=O)O)[C@H]1OS(=O)(=O)O	–	–	–	–	IC50 [5]: 0.0135 mM
O=P(O)(O)O[C@@H]1[C@H](O)[C@H](O)[C@@H](O)[C@H](O)[C@H]1O	–	–	–	–	IC50 [5]: 3.6 mM
CC[C@H](C)[C@H](NC(=O)[C@H](Cc1ccccc1)NC(=O)[C@H](Cc1ccc(O)cc1)NC(=O)[C@H](CC(N)=O)NC(=O)[C@@H](NC(=O)[C@@H](NC(=O)[C@@H](NC(=O)[C@H](CCC(N)=O)NC(=O)[C@H](CC(C)C)NC(=O)[C@H](CCCNC(=N)N)NC(=O)[C@H](CCC(=O)O)NC(=O)[C@H](Cc1ccccc1)NC(=O)[C@H](CCCCN)NC(=O)[C@H](C)N)[C@@H](C)O)C(C)C)[C@@H](C)O)C(=O)N[C@H](C(=O)N[C@@H](CO)C(=O)N[C@@H](CCC(=O)O)C(=O)O)[C@@H](C)O (H-AKFERLQTVTNYFITSE-OH)	–	1.6	0.6	1.5	–
CC[C@H](C)[C@H](NC(=O)[C@H](Cc1ccccc1)NC(=O)[C@H](Cc1ccc(O)cc1)NC(=O)[C@H](CC(N)=O)NC(=O)[C@@H](NC(=O)[C@@H](NC(=O)[C@@H](NC(=O)[C@H](CCC(N)=O)NC(=O)[C@H](CC(C)C)NC(=O)[C@H](CCCNC(=N)N)NC(=O)[C@H](CCC(=O)O)NC(=O)[C@H](Cc1ccccc1)NC(=O)[C@H](CCCCN)NC(=O)[C@H](C)N)[C@@H](C)O)C(C)C)[C@@H](C)O)C(=O)N[C@H](C(=O)N[C@@H](CO)C(=O)N[C@@H](CCCCN)C(=O)O)[C@@H](C)O (H-AKFERLQTVTNYFITSK-OH)	–	9.4	32.2	55.5	–
CC[C@H](C)[C@H](NC(=O)[C@H](C)NC(=O)[C@@H](NC(=O)[C@@H](N)CCC(=O)O)[C@@H](C)O)C(=O)N[C@@H](C)C(=O)N[C@@H](CCCCN)C(=O)N[C@@H](Cc1ccccc1)C(=O)N[C@@H](CCC(=O)O)C(=O)N[C@@H](CCCNC(=N)N)C(=O)N[C@@H](CC(C)C)C(=O)N[C@@H](CCC(N)=O)C(=O)N[C@H](C(=O)N[C@H](C(=O)N[C@H](C(=O)N[C@@H](CC(N)=O)C(=O)N[C@@H](Cc1ccc(O)cc1)C(=O)N[C@@H](Cc1ccccc1)C(=O)N[C@H](C(=O)N[C@H](C(=O)N[C@@H](CO)C(=O)N[C@@H](CCCCN)C(=O)O)[C@@H](C)O)[C@@H](C)CC)[C@@H](C)O)C(C)C)[C@@H](C)O (H-ETAIAKFERLQTVTNYFITSK-OH)	–	7.4	52.2	22.6	–
CC[C@H](C)[C@H](NC(=O)[C@H](C)NC(=O)[C@@H](NC(=O)[C@@H](N)CCCCN)[C@@H](C)O)C(=O)N[C@@H](C)C(=O)N[C@@H](CCCCN)C(=O)N[C@@H](Cc1ccccc1)C(=O)N[C@@H](CCC(=O)O)C(=O)N[C@@H](CCCNC(=N)N)C(=O)N[C@@H](CC(C)C)C(=O)N[C@@H](CCC(N)=O)C(=O)N[C@H](C(=O)N[C@H](C(=O)N[C@H](C(=O)N[C@@H](CC(N)=O)C(=O)O)[C@@H](C)O)C(C)C)[C@@H](C)O (H-KTAIAKFERLQTVTN-OH)	–	2.1	5.6	11.6	–
CC[C@H](C)[C@H](NC(=O)[C@H](C)NC(=O)[C@@H](NC(=O)[C@@H](N)CCCCN)[C@@H](C)O)C(=O)N[C@@H](C)C(=O)N[C@@H](CCCCN)C(=O)N[C@@H](Cc1ccccc1)C(=O)N[C@@H](CCC(=O)O)C(=O)N[C@@H](CCCNC(=N)N)C(=O)N[C@@H](CC(C)C)C(=O)N[C@@H](CCC(N)=O)C(=O)N[C@H](C(=O)N[C@H](C(=O)N[C@H](C(=O)N[C@@H](CC(N)=O)C(=O)N[C@@H](Cc1ccc(O)cc1)C(=O)N[C@@H](Cc1ccccc1)C(=O)N[C@H](C(=O)N[C@H](C(=O)N[C@@H](CO)C(=O)N[C@@H](CCC(=O)O)C(=O)O)[C@@H](C)O)[C@@H](C)CC)[C@@H](C)O)C(C)C)[C@@H](C)O (H-KTAIAKFERLQTVTNYFITSE-OH)	–	3.9	4.4	6.1	–
CC[C@H](C)[C@H](NC(=O)[C@H](C)NC(=O)[C@@H](NC(=O)[C@@H](N)CCCCN)[C@@H](C)O)C(=O)N[C@@H](C)C(=O)N[C@@H](CCCCN)C(=O)N[C@@H](Cc1ccccc1)C(=O)N[C@@H](CCC(=O)O)C(=O)N[C@@H](CCCNC(=N)N)C(=O)N[C@@H](CC(C)C)C(=O)N[C@@H](CCC(N)=O)C(=O)N[C@H](C(=O)N[C@H](C(=O)N[C@H](C(=O)N[C@@H](CC(N)=O)C(=O)N[C@@H](Cc1ccc(O)cc1)C(=O)N[C@@H](Cc1ccccc1)C(=O)N[C@H](C(=O)N[C@H](C(=O)N[C@@H](CO)C(=O)N[C@@H](CCCCN)C(=O)O)[C@@H](C)O)[C@@H](C)CC)[C@@H](C)O)C(C)C)[C@@H](C)O (H-KTAIAKFERLQTVTNYFITSK-OH)	–	61.3	36.5	30.4	–
CC1=C(C(=O)Nc2ccc3[nH]ncc3c2)C(c2ccc(F)cc2)NC(=O)N1 (configuration not stated) [GSK-180736A]	> 500	–	–	–	–
CC1=C(C(=O)Nc2ccc3[nH]ncc3c2)C(c2ccc3ccccc3c2)CC(=O)N1 (configuration not stated) [GSK-270822A]	50.1	–	–	–	–
CC1=C(C(=O)Nc2ccc3[nH]ncc3c2)C(c2ccc(Cl)c(Cl)c2)CC(=O)N1 (configuration not stated) [GSK-299115A]	63.1	–	–	–	–
CC1=C(C(=O)Nc2cc(Cl)c3[nH]ncc3c2)C(c2ccc(C(F)(F)F)cc2)CC(=O)N1 (configuration not stated) [GSK-466317A]	12.6	–	–	–	IC50 (Rhodopsin kinase GRK1): 1 mM
Fc1ccc([C@@H]2CCNC[C@H]2COc2ccc3c(c2)OCO3)cc1 [PAROXETINE HYDROCHLORIDE]	> 45	–	–	–	IC50 [9]: 220 µM
